# Data published in patent publication US9358272B2, “Multicomponent compositions and their uses” (THE ADMINISTRATORS OF THE TULANE EDUCATIONAL FUND, priority 2011, dated 2016).
# Where a SMILES comes first, the peptide text is derived from it. [ ]: non-standard residue; d: D form. The star is where a group is joined. Nle = CCCC[C@H](N)C(=O)O; Cbz = O=C(OCc1ccccc1)*
# Tests used:
# [1] = tested on: ovarian cancer OVCAR8 cells; assay: Cell proliferation assay (MTT), OVCAR8 cells; assay type: cell-based, Human; settings: single agents and combinations
# Experimental: (§1) Cell Proliferation Assay (MTT)
# (§2) The cell proliferation assay was performed as described previously in Sun et al., Bioorg Med Chem Lett, 2004, Vol. 14, pp. 2041-2046. Briefly, 50 μl aliquots of medium with different concentrations of compounds were added to 96-well plates. All compound concentrations were tested in triplicate. Another 50 μl of the cell stock (1×10^5 cells/ml of media) was dispensed into each test well and the plates were incubated at 37° C. in a CO2 incubator for 3 days. Following the incubation period, 15 μl of the dye solution was added to each well and the plates were then incubated at 37° C. for 4 hours, followed by the addition of 100 μl per well of the solubilization solution. The plates were incubated at 37° C. until the contents in each well became a uniform-colored solution. The absorbance was measured and recorded at 570 nm by a Victor Plate Reader.
# (§3) The cell proliferation assay (Promega, Madison, Wis.) was performed as described in Sun et al., Bioorg Med Chem Lett, 2004, Vol. 14, pp. 2041-2046. The absorbance was measured and recorded at 570 nm by a Victor Plate Reader (PerkinElmer, Boston, Mass.).
# [2] = tested on: pancreatic cancer CFPAC-1 cells; assay: Cell proliferation assay (MTT), CFPAC-1 cells; assay type: cell-based, Human; settings: single agents and combinations
# Experimental: as §1, §2, §3
# [3] = tested on: colonrectal cancer HT-29 cells; assay: Cell proliferation assay (MTT), HT-29 cells; assay type: cell-based, Human; settings: single agents and combinations
# Experimental: as §1, §2, §3
# [4] = tested on: cervical cancer Hela cells; assay: Cell proliferation assay (MTT), cervical cancer Hela cells; assay type: cell-based, Human; settings: single agents and combinations, VPA 2.5 mM in FIGS. 19, 22
# [5] = tested on: pancreatic carcinoid BON cells; assay: Cell proliferation assay (MTT), BON cells; assay type: cell-based, Human; settings: single agents and combinations, 2.5 mM VPA or 10 uM SBHA in FIGS. 20, 23
# [6] = tested on: small cell lung cancer DMS-53 cells; assay: Cell proliferation assay (MTT), DMS-53 cells; assay type: cell-based; settings: single agents and combinations, 2.5 mM VPA or 10 uM SBHA in FIGS. 21, 24
# Hela-GFP cells = assay: Cell proliferation assay (MTT), Hela-GFP cells; assay type: cell-based, Human
# Experimental: as §1
# (§4) The cell proliferation assay (Promega, Madison, Wis.) was performed as described previously in Sun et al., Bioorg Med Chem Lett, 2004, Vol. 14, pp. 2041-2046. Briefly, fifty μl of medium with or without tested compounds was added to 96-well plates. Another 50 μl of tested cancer cells (1×10^5 cells/ml) suspended in culture medium was dispensed into each well. The plates were incubated at 37° C. for 3 days. Afterward, plates were added with a 15 μl dye solution per well and incubated at 37° C. for 4 hours. To each well was then added 100 μl of the solubilization solution and the plates were incubated at 37° C. again until the contents in each well became a uniformly colored solution. The plates were measured at 570 nm by a Victor Reader (PerkinElmer).
# Hela-ICN1 cells = assay: Cell proliferation assay (MTT), Notch1-activated Hela-ICN1 cells; assay type: cell-based, Human
# Experimental: as §1, §4
# [7] = tested on: cAMP production in Hela-GFP cells; assay: Fluorescence polarization (FP) cAMP assay, Hela-GFP cells; assay type: cell-based, Human; settings: control Hela (Hela-GFP) cells
# Experimental: (§5) Fluorescence Polarization (FP) cAMP Assay The FP cAMP assay (FPA202) was performed according to the manufacturer's protocol (PerkinElmer, Boston, Mass. 02118-2512). Briefly, ten μl of forskolin at different concentrations were added to each well, then to each well ten μl of cell suspended in Stimulation Mix (made fresh before use by mixing anti-cAMP antibody in stimulation buffer) was added. Plates were incubated 30 minutes at 37° C. Twenty μl of Detection Mix (Fluo-cAMP stock diluted in Detection Buffer) was added and continued incubation 30 minutes at 37° C. Meanwhile, the standard curve, and controls were done. The cAMP was measured by Victor Reader (PerkinElmer).
# [8] = tested on: cAMP production in Hela-ICN1 cells; assay: Fluorescence polarization (FP) cAMP assay, Hela-ICN1 cells; assay type: cell-based, Human; settings: for cAMP production: Hela cells with activated Notch1 signaling (Hela-ICN1)
# Experimental: as §5
smiles,measurement,setting,value
"CCCC[C@@H](C=O)NC(=O)[C@H](CC(C)C)NC(=O)[C@H](CC(C)C)NC(=O)OCc1ccccc1 [NLE, Z-Leu-Leu-Nle-CHO] (Cbz-Leu-Leu-[Nle]-aldehyde)","cell growth suppression (MTT), in words",[1],induced cell growth arrest
same,"cell growth suppression (MTT), in words",[2],induced cell growth arrest
same,"cell growth suppression (MTT), in words",[3],induced cell growth arrest
"O=C(CCCCCCC(=O)NO)NO [SBHA, suberoyl bis-hydroxamic acid]","cell growth suppression (MTT), in words",[4],suppressed
same,"cell growth suppression (MTT), in words",[5],induced growth suppression
same,"cell growth suppression (MTT), in words",[6],induced growth suppression
"C[C@H](N)C(=O)NCC(=O)N[C@H]1CSSC[C@@H](C(=O)O)NC(=O)[C@H](CO)NC(=O)[C@H]([C@@H](C)O)NC(=O)[C@H](Cc2ccccc2)NC(=O)[C@H]([C@@H](C)O)NC(=O)[C@H](CCCCN)NC(=O)[C@H](Cc2c[nH]c3ccccc23)NC(=O)[C@H](Cc2ccccc2)NC(=O)[C@H](Cc2ccccc2)NC(=O)[C@H](CC(N)=O)NC(=O)[C@H](CCCCN)NC1=O [SST-14, Ala-Gly-Cys-Lys-Asn-Phe-Phe-Trp-Lys-Thr-Phe-Thr-Ser-Cys]",inhibitory rate of cell proliferation (MTT),Hela-GFP cells; compound at 1 μM,almost no effect
same,inhibitory rate of cell proliferation (MTT),Hela-GFP cells; compound at 10 μM,28%
same,inhibitory rate of cell proliferation (MTT),Hela-GFP cells; compound at 20 μM,about 40%
same,inhibition of cell growth (MTT),Hela-ICN1 cells; compound at 1 μM,2%
same,inhibition of cell growth (MTT),Hela-ICN1 cells; compound at 10 μM,8%
C=C[C@@]1(C)CC(=O)[C@]2(O)[C@@]3(C)[C@@H](O)CCC(C)(C)[C@@H]3[C@H](O)[C@H](OC(C)=O)[C@@]2(C)O1 [forskolin],cAMP production,[7]; forskolin at 1 μM,0.005 pMol cAMP per 10^3 cells
same,cAMP production,[7]; forskolin at 10 μM,0.018 pMol cAMP per 10^3 cells
same,cAMP production,[7]; forskolin at 50 μM,0.024 pMol cAMP per 10^3 cells
same,cAMP production,[8]; forskolin at 1 μM,0.05 pMol cAMP per 10^3 cells
same,cAMP production,[8]; forskolin at 10 μM,0.25 pMol cAMP per 10^3 cells
same,cAMP production,[8]; forskolin at 50 μM,0.46 pMol cAMP per 10^3 cells
same,cAMP concentration in Hela-ICN1 cells relative to Hela-GFP cells,[8]; forskolin at 1 μM,10 fold
same,cAMP concentration in Hela-ICN1 cells relative to Hela-GFP cells,[8]; forskolin at 10 μM,14 fold
same,cAMP concentration in Hela-ICN1 cells relative to Hela-GFP cells,[8]; forskolin at 50 μM,19 fold
